According to patent US20230310427A1, “NEW THERAPEUTIC USE OF RILPIVIRINE” (UNIVERSITY OF SOUTH AUSTRALIA, priority 2020, published 2023):

Key:
[1] = tested on: Leukemia (HL-60, U-937, NB4, Jurkat, K-562), ovarian (A2780), prostate (PC3) and breast (T47D) cancer cell lines; test: Cell viability assays (MTT and resazurin); type: cell-based; conditions: 72 hour treatment; range over all cell lines tested; read-out: IC50, inhibition of cancer cell proliferation
Text: The MTT (3-(4,5-dimethylthiazol-2-yl)-2,5-diphenyl tetrazolium bromide; Sigma-Aldrich, St Louis, MO, United States of America) assay was used to determine half maximal inhibition values (IC50) in response to drug treatment using a number of different adherent cancer cell lines. The MTT was converted by metabolically active cells into an insoluble formazan product which was solubilised with 100% DMSO. The solubilised formazan gives absorbance at 560 nm which is directly proportional to the number of viable cells. The assay was carried out as previously described (Wang S et al., J Med Chem 47(7):1662-1675, 2004). The absorbance of treated wells was read using an EnVision multi-label plate reader. The resazurin assay was carried out for non-adherent cell lines as reported previously (Yu M et al., EJMC 95:116-126, 2015). IC50 values were determined by non-linear regression analysis using GraphPad Prism software.

[2] = molecular target: T1, Aurora A kinase (Homo sapiens, UniProt O14965); test: Kinase assay; type: biochemical
T1 construct: purchased Promega (ADP-Glo kits) or Reaction Biology Corporation / Eurofins discovery services (external)
T1 sequence (O14965 1-403): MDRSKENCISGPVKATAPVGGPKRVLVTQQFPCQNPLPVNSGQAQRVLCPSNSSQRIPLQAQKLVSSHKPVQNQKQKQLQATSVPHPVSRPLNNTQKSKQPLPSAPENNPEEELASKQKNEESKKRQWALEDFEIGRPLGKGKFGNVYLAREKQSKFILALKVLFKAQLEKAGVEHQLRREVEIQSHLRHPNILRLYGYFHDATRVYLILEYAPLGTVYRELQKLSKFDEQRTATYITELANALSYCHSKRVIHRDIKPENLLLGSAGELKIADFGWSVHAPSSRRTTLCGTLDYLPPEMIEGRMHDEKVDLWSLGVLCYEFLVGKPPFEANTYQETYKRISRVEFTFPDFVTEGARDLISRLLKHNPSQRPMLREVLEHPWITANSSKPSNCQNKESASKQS
Protocol: (§1) The ability of compounds to inhibit kinases was measured using ADP-Glo^Tm assay kits (Promega, Madison, WI, United States of America) or externally using radioisotope based assays (Reaction Biology Corporation, Malvern, PA, United States of America and Eurofins discovery services, France). The ADP-Glo assay was performed as reported previously (Basnet SK et al., Mol Pharmacol 88(5):935-948, 2015).The assay plate was read for luminescence using Envision multi-label plate reader (PerkinElmer, Waltham, MA, United States of America). Half-maximal inhibition (IC50) values were determined from a plot of percent residual activity versus concentration of test compounds using GraphPad Prism software. Ki values were calculated from IC50 values using the Cheng-Prusoff equation: Ki= IC50/ [1 + ([ATP]/Km ATP)], where [ATP] is the ATP concentration used for the IC50 determination and Km ATP for each kinase is determined from an individual experiment.

[3] = molecular target: T2, Aurora B kinase (Homo sapiens, UniProt Q96GD4); test: Kinase assay; type: biochemical; conditions: kinase inhibition profiling (FIG. 2), concentration of 10 µM
T2 construct: purchased Promega (ADP-Glo kits) or Reaction Biology Corporation / Eurofins discovery services (external)
T2 sequence (Q96GD4 whole entry): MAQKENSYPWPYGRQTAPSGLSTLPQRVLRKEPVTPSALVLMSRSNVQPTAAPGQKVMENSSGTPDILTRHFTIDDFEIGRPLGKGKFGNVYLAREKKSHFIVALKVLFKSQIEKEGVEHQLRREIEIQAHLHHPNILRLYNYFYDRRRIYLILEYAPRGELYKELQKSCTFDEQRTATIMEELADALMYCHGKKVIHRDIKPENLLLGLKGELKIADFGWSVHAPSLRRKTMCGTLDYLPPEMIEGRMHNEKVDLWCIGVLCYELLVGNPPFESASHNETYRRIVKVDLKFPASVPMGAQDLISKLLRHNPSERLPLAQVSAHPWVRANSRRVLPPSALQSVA
Protocol: as §1

[4] = molecular target: T3, FLT3 (Homo sapiens, UniProt P36888); test: Kinase assay; type: biochemical; conditions: kinase inhibition profiling (FIG. 2), concentration of 10 µM
T3 construct: purchased Promega (ADP-Glo kits) or Reaction Biology Corporation / Eurofins discovery services (external)
T3 sequence (P36888 27-993): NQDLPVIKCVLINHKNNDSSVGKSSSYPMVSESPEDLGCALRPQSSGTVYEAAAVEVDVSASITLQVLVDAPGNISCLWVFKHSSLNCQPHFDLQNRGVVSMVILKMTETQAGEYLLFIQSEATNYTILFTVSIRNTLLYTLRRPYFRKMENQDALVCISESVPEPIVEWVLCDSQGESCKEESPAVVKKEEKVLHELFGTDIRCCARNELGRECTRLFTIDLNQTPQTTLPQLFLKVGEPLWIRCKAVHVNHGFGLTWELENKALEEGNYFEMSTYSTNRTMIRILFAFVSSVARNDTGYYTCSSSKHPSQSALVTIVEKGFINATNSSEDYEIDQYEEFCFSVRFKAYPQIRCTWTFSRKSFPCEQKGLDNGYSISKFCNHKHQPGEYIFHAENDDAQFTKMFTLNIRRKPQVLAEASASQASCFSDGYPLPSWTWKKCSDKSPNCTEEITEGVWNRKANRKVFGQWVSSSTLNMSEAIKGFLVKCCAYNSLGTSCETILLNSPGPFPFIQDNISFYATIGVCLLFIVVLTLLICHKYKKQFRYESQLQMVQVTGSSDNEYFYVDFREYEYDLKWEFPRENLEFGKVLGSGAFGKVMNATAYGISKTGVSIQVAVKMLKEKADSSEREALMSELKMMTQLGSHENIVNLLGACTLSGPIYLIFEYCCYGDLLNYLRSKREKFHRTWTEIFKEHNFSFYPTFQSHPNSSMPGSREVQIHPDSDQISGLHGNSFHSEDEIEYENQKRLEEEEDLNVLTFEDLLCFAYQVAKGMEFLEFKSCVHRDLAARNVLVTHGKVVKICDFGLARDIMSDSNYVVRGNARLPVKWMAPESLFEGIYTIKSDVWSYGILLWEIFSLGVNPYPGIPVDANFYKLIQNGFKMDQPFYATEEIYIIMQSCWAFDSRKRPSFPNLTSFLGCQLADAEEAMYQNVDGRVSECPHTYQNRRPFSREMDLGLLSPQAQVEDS
Protocol: as §1

[5] = molecular target: T4, JAK1 (Homo sapiens, UniProt P23458); test: Kinase assay; type: biochemical; conditions: kinase inhibition profiling (FIG. 2), concentration of 10 µM
T4 construct: purchased Promega (ADP-Glo kits) or Reaction Biology Corporation / Eurofins discovery services (external)
T4 sequence (P23458 whole entry): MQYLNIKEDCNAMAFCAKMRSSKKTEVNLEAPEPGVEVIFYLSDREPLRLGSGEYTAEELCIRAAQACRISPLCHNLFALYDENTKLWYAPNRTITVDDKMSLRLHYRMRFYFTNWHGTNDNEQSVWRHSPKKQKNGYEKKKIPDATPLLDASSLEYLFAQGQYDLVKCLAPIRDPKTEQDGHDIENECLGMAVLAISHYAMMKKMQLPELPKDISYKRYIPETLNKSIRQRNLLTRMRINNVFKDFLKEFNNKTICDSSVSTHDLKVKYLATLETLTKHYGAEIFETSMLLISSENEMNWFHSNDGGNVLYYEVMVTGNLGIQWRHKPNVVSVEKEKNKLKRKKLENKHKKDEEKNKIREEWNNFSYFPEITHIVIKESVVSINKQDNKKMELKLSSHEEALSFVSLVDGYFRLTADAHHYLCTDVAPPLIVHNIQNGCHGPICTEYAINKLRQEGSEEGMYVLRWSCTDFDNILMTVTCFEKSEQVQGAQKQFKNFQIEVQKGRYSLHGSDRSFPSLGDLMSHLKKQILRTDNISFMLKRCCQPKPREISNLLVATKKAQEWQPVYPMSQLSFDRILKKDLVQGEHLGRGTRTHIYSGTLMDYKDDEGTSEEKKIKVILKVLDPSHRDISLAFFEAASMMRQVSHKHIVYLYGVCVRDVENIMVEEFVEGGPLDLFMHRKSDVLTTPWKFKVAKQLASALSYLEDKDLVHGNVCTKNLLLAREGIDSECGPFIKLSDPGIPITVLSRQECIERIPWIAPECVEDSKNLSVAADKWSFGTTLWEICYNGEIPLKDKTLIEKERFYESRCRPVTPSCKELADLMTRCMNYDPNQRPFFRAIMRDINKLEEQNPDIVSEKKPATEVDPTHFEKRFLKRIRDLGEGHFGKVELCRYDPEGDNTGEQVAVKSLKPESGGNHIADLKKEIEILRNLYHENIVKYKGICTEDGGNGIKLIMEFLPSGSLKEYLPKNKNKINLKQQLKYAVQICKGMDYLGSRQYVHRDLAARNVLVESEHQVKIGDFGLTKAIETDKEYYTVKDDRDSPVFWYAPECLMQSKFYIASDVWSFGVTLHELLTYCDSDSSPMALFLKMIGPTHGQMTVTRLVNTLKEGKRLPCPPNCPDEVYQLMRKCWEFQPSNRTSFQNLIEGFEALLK
Protocol: as §1

[6] = molecular target: T5, LYN (Homo sapiens, UniProt P07948); test: Kinase assay; type: biochemical; conditions: expanded panel, read-out: percent inhibition
T5 construct: purchased Promega (ADP-Glo kits) or Reaction Biology Corporation / Eurofins discovery services (external)
T5 sequence (P07948 whole entry): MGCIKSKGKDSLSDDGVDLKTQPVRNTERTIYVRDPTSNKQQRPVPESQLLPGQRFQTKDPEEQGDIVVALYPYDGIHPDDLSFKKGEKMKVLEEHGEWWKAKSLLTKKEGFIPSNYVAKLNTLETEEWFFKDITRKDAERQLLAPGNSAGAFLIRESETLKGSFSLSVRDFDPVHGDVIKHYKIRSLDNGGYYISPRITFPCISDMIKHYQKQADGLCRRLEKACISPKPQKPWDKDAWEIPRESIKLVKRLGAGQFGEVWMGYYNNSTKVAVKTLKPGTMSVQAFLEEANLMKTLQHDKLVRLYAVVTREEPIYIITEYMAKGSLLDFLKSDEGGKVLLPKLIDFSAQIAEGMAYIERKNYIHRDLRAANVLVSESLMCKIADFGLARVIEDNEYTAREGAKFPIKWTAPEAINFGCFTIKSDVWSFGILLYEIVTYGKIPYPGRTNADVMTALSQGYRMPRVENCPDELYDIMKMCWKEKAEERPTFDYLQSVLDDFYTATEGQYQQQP
Protocol: as §1

[7] = molecular target: T6, PIM1 (Homo sapiens, UniProt P11309); test: Kinase assay; type: biochemical
T6 construct: purchased Promega (ADP-Glo kits) or Reaction Biology Corporation / Eurofins discovery services (external)
T6 sequence (P11309 whole entry): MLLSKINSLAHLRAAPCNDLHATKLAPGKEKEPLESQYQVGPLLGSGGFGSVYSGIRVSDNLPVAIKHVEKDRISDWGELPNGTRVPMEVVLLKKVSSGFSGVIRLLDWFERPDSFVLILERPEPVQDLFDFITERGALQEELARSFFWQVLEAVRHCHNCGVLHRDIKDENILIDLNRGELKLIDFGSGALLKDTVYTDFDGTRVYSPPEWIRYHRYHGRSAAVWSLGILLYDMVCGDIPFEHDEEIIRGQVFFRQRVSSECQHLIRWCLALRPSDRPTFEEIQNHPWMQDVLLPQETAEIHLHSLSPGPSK
Protocol: as §1

[8] = molecular target: T7, YES kinase (Homo sapiens, UniProt P07947); test: Kinase assay; type: biochemical; conditions: expanded panel, read-out: percent inhibition
T7 construct: purchased Promega (ADP-Glo kits) or Reaction Biology Corporation / Eurofins discovery services (external)
T7 sequence (P07947 whole entry): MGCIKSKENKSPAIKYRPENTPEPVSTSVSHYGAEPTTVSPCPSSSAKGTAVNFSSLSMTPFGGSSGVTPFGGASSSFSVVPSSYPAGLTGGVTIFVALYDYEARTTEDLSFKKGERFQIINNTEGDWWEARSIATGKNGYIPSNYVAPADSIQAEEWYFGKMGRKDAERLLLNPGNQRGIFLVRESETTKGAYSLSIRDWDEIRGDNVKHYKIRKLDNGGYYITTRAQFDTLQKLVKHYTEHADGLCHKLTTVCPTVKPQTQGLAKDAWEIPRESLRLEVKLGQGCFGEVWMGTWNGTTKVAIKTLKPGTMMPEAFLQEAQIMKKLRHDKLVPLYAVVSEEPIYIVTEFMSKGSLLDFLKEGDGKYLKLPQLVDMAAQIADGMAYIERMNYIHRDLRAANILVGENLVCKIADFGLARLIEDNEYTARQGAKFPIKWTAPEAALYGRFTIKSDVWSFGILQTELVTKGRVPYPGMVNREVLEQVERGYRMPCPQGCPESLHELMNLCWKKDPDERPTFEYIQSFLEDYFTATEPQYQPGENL
Protocol: as §1

[9] = tested on: HL-60 cells; test: Cell cycle analysis (flow cytometry); type: cell-based
Protocol: (§2) The effect of Rilpivirine on cell cycle distribution in different cancer cell lines was evaluated by flow cytometric analysis. Briefly, cells were seeded in 6-well plates at a density of 6 × 10^4 cells/well. All plates were incubated overnight at 37° C. in a 5% CO2 incubator. Following the incubation, the test compounds (Rilpivirine (Ril) and comparators, Alisertib (Ali; a known Aurora A inhibitor) and Etravirine (Etra; 4-[[6-amino-5-bromo-2-[(4-cyanophenyl)amino]-4-pyrimidinyl]oxy]-3,5-dimethylbenzonitrile - a structurally similar NNRTI drug compound sold under the brand name Intelence® (Janssen Therapeutics)) were added to individual wells and the plates were incubated at same condition for 24 h, 48 h or 72 h. Subsequently, the medium was removed from the wells and transferred into fluorescence-activated cell sorting (FACS) tubes. The adherent cells remaining were trypsinised, re-suspended in media and transferred into the FACS tubes. Cells were centrifuged, fixed with cold 70% ethanol for 15 min and pelleted. The pelleted cells were then re-suspended in 200 µL propidium iodide (PI) solution (50 µg/mL propidium iodide, 0.1 mg/mL ribonuclease A, 0.1% sodium citrate, 0.1% triton X-100) and incubated in the dark for 1.5 h at room temperature. Following the incubation, 200 µL PBS was added. Samples were assessed using a flow cytometer (Cytoflex; Beckman Coulter Inc, Brea, CA, United States of America) and data were analysed using the Cytexpert software.

[10] = tested on: Jurkat cells; test: Cell cycle analysis (flow cytometry); type: cell-based; conditions: various concentrations, 24 hour
Protocol: as §2

[11] = tested on: K-562 cells; test: Cell cycle analysis (flow cytometry); type: cell-based; conditions: various concentrations, 24 hour
Protocol: as §2

[12] = tested on: Miapaca-2 (pancreatic) cancer cell lines; test: Cell cycle analysis (flow cytometry); type: cell-based; conditions: 48 hours; data not shown
Protocol: as §2

[13] = tested on: NB4 cells; test: Cell cycle analysis (flow cytometry); type: cell-based; conditions: various concentrations, 24 hour
Protocol: as §2

[14] = tested on: OVCAR-5 cells; test: Cell cycle analysis (flow cytometry); type: cell-based; conditions: 72 hour, 5 µM, 10 µM and 20 µM; p53 WT
Protocol: as §2

[15] = tested on: SKOV-3 cells; test: Cell cycle analysis (flow cytometry); type: cell-based; conditions: 72 hours, 5 µM, 10 µM and 20 µM; p53 mutant; data not shown
Protocol: as §2

[16] = tested on: T47D cells; test: Cell cycle analysis (flow cytometry); type: cell-based; conditions: 48-hour treatment; p53 mutant
Protocol: as §2

[17] = 1 µM, expanded panel, read-out: percent inhibition
[18] = kinase inhibition profiling (FIG. 2), concentration of 10 µM

IC50 [1]: 3 to 8 µM
inhibition at 1 µM [2, 17]: 86%
Ki ([2]; cell free kinase assay): 0.13 µM
inhibitory activity against Aurora A [2, 18]: potently inhibits
inhibitory activity against Aurora B [3]: some inhibitory activity
inhibitory activity against FLT3 [4]: some inhibitory activity
inhibitory activity against JAK1 [5]: some inhibitory activity
inhibition at 1 µM [6]: 77%
inhibition at 1 µM [7, 17]: 78%
inhibitory activity against PIM1 [7, 18]: some inhibitory activity
inhibition at 1 µM [8]: 83%
Structure (SMILES): Cc1cc(/C=C/C#N)cc(C)c1Nc1ccnc(Nc2ccc(C#N)cc2)n1 [Rilpivirine, 4-[[4-[4-[(E)-2-cyanoethenyl]-2,6-dimethylanilino]pyrimidin-2-yl]amino]benzonitrile]
cell cycle arrest ([9]; 5, 10 and 20 µM for 24 hrs, p53 null): arrested in the G2/M Phase
numbers of cells in G2/M ([9]; 24 hour treatment, versus diluent only): approximately doubled
cell cycle arrest [10]: arrests NB4 and Jurkat cells in the G2/M phase in a dose-dependent manner
cell cycle arrest [11]: arrests both of these cell lines in the G2/M phase in a dose-dependent manner
cell cycle arrest [12]: G2/M arrest increased with increasing concentrations of the drug
cell cycle arrest [13]: arrests NB4 and Jurkat cells in the G2/M phase in a dose-dependent manner
cell cycle arrest [14]: arrests the cells in the G1 phase or accumulated in Sub-G1 phase at higher concentrations
cell cycle arrest [15]: caused G2/M arrest in a dose-dependent manner
cell cycle arrest [16]: arrest T47D breast cancer cells in G2/M phase
